Entries after “also recorded” stand apart in the source; their conditions may differ.
Columns and labels:
[1] = system: CTB-stimulated J774A.1 cells; format: cell-based, murine
[2] = system: LPS-stimulated J774A.1 cells; assay: TNF secretion by LPS-stimulated J774A.1 cells; format: cell-based, murine; conditions: for Change in level of secretion of TNF into the supernatant: LPS-stimulated J774A.1 cells, overnight exposure to cyclic peptide, TNF by sandwich ELISA, very high levels of TNF generated
[3] = system: cytokine activated T-cells (Tck) co-cultured with monocytes; assay: TNF secretion in T cell/monocyte co-culture (cognate assay); format: cell-based, human
Protocol: (§1) A methodology described by Brennan et al. was employed. Peripheral blood lymphocytes (>95%) are enriched by Centrifugal Elutriation from plateletphoresis blood cones. CD45RO^+ Tcells (>98% purity) isolated by negative selection (Miltenyi, Bisley, UK) are re-suspended to a density of 1 × 10^6 cells/mL in RPMI 1640 containing 10% heat-inactivated AB^+ Human Serum. Cytokines are added to the cells at the following concentrations, hIL-2 @25 ng/mL, hIL-6 @100 ng/mL and hTNFα @25 ng/mL, all purchased from Peprotech UK (London, UK). The cells are incubated at 37 °C, 5% CO2 for 8 d after which they are pelleted twice at 1500 rpm for 5 min, counted and then used in a cognate experiment.
(§2) A methodology described by Brennan et al. is employed as follows. Elutriation-enriched (>95%) autologous monocytes are cultured at 1 × 10^6 cells/mL (100 microlitres) in RPMI 1640 containing 5% heat-inactivated FCS, in a 96-well, round-bottomed culture plate. After adjusting the cell number, cytokine activated T-cells (Tck) are added to the monocytes at a 5:1 ratio, the peptides are then added into the appropriate wells, with a final volume of 200 μL/well. Cells are co-cultured at 37 °C, 5% CO2 for 18 h after which the supernatants are removed and assayed for cytokine production by ELISA.

[4] = system: LPS-stimulated J774A.1 cells; assay: IL-6 secretion by LPS-stimulated J774A.1 cells; format: cell-based, murine; conditions: different concentrations, formulated with cyclodextrin in the absence of transcutol
[5] = system: cytokine activated T-cells (Tck) co-cultured with monocytes; assay: IL-6 secretion in the cognate assay; format: cell-based, human; conditions: cognate model; 10 and 1 μg/mL peptide, relative to corresponding vehicle controls; formulated with cyclodextrin in the absence of transcutol
Protocol: as §1, §2

[6] = system: cells of the cytokine secretion experiments (replicates of each group); assay: MTT viability assay; format: cell-based; conditions: MTT 4 h at 37 °C, read at 620 nm
Protocol: After removal of the supernatants 100 μL of RPMI 1640 is added to each well of the plate. 10 μL of MTT dye (stock 5 mg/mL) is added to each well and incubated for 4 h at 37 °C 5% CO2, the MTT crystals are dissolved with SDS after which the plates are read at 620 nm.

[7] = system: cytokine activated T-cells (Tck) co-cultured with monocytes; assay: IL-1 levels in the cognate model; format: cell-based, human
Protocol: as §1, §2

[8] = system: cytokine activated T-cells (Tck) co-cultured with monocytes; assay: IL-10 levels in the cognate model; format: cell-based, human
Protocol: as §1, §2

[9] = Light scattering / homogeneity of the peptide preparation in aqueous medium; format: physicochemical; conditions: peptide dissolved in HFIP or transcutol in the presence of β-hydroxypropyl cyclodextrin, then aqueous medium; all levels of cyclodextrin employed
Text: In order to avoid problems with aggregation, which, it was feared, may affect the long-term stability of the product, a number of methodologies were employed to disperse the peptide prior to introduction into aqueous medium. Dissolution in HFIP, followed by drying down and addition of water worked reasonably well, as did dissolving in transcutol at high concentration, then adding to water. […] Detailed methodology is given in the Experimental section.

lymphocytes = assay: TNF secretion by lymphocytes; format: cell-based; conditions: evidence to be presented separately

## cyclo(-DF-R-Nle-S-DF-R-Nle-S-) [Lex 2.3]
[1]
  Change in level of secretion of TNF into the supernatant: insufficient

## cyclo(DF-S-LC10-R-DF-S-LC10-R) [Lex 2.6]
[1]
  Change in level of secretion of TNF into the supernatant: inhibits secretion of TNF
[2]; LPS-stimulated J774A.1 cells overnight, formulated with beta hydroxypropyl cyclodextrin at different weight ratios, down to 1.25 (molar ratio 1.3)
  Dependence of TNF down-regulating activity on cyclodextrin:peptide ratio: independent of the ratio of peptide to cyclodextrin
[2]
  Change in level of secretion of TNF into the supernatant: most efficacious structure tested; also recorded: inhibits secretion of TNF
[3]; 10 µg/mL, formulated with cyclodextrin in the presence of transcutol (panel a), 18 h co-culture, ELISA
  Effect on TNF secretion of cells in the cognate assay: inhibitory activity is seen clearly
[3]; summary statement
  Inhibition of TNF secretion elicited by modified T-cell phenotype: inhibits secretion of TNF
[4]
  Effect on IL-6 secretion: Clear dose-related inhibition of IL-6 secretion
[5]
  Effect on IL-6 secretion: reductions in IL-6 secretion
[6]
  Cell metabolic activity (MTT test): no reduction in cell metabolic activity
[7]
  Effect on levels of IL-1: No effect
[8]
  Effect on levels of IL-10: No effect
[9]
  Light scattering of the preparation (homogeneity): significant reduction in light scattering
lymphocytes
  Effect on TNF secretion by lymphocytes: no effect on secretion by lymphocytes

## cyclo(DF-R-LC10-S-DF-R-LC10-S) [Lex 2.5]
[2]
  Change in level of secretion of TNF into the supernatant: strongly dose-related stimulatory activity

## cyclo(-DF-S-Σ-R-DF-S-Σ-R-) [Lex 2.2]
[1]
  Change in level of secretion of TNF into the supernatant: efficacy in terms of down-regulating the secretion of TNF; also recorded: more efficacious

## cyclo(-DF-R-Σ-S-DF-R-Σ-S-) [Lex 2.1]
[1]
  Change in level of secretion of TNF into the supernatant: efficacy in terms of down-regulating the secretion of TNF

## cyclo(-DF-S-Nle-R-DF-S-Nle-R-) [Lex 2.4]
[1]
  Change in level of secretion of TNF into the supernatant: insufficient

From PMC6271530, “Design and Optimisation of Bioactive Cyclic Peptides: Generation of a Down-Regulator of TNF Secretion” (Molecules, 2014)
